What was measured:
Format in all cases: in vivo
[1] = test system: blackgrass (Alopecurus myosuroides); assay: Test C preemergence, blackgrass; settings: 0 is no effect, 100 is complete control
From the text: (§1) Seeds of plant species selected from blackgrass (Alopecurus myosuroides), corn (Zea mays), foxtail, giant (giant foxtail, Setaria faberi), goosegrass (Eleusine indica), kochia (Bassia scoparia), oat, wild (wild oat, Avena fatua), pigweed, palmer (palmer amaranth, Amaranthus palmeri), ragweed (common ragweed, Ambrosia artemisiifolia), ryegrass, Italian (Italian ryegrass, Lolium multiflorum), soybean (Glycine max) and wheat (Triticum aestivum) were planted into a blend of loam soil and sand and treated preemergence with a directed soil spray using test chemicals formulated in a non-phytotoxic solvent mixture which included a surfactant.
(§2) At the same time, plants selected from these crop and weed species and also galium (catchweed bedstraw, Galium aparine) and horseweed (Erigeron canadensis) were planted in pots containing the same blend of loam soil and sand and treated with postemergence applications of test chemicals formulated in the same manner. Plants ranged in height from 2 to 10 cm and were in the one- to two-leaf stage for the postemergence treatment. Treated plants and untreated controls were maintained in a greenhouse for 10 or 12 days, after which time all treated plants were compared to untreated controls and visually evaluated for injury. Plant response ratings, summarized in Table A, are based on a 0 to 100 scale where 0 is no effect and 100 is complete control. A dash (-) response means no test result.

[2] = test system: corn (Zea mays); assay: Test C preemergence, corn; settings: 0 is no effect, 100 is complete control
From the text: as §1, §2

[3] = test system: foxtail, giant (giant foxtail, Setaria faberi); assay: Test C preemergence, giant foxtail; settings: 0 is no effect, 100 is complete control
From the text: as §1, §2

[4] = test system: goosegrass (Eleusine indica); assay: Test C preemergence, goosegrass; settings: 0 is no effect, 100 is complete control
From the text: as §1, §2

[5] = test system: kochia (Bassia scoparia); assay: Test C preemergence, kochia; settings: 0 is no effect, 100 is complete control
From the text: as §1, §2

[6] = test system: oat, wild (wild oat, Avena fatua); assay: Test C preemergence, wild oat; settings: 0 is no effect, 100 is complete control
From the text: as §1, §2

[7] = test system: pigweed, palmer (palmer amaranth, Amaranthus palmeri); assay: Test C preemergence, palmer amaranth; settings: 0 is no effect, 100 is complete control
From the text: as §1, §2

[8] = test system: ragweed (common ragweed, Ambrosia artemisiifolia); assay: Test C preemergence, ragweed; settings: 0 is no effect, 100 is complete control
From the text: as §1, §2

[9] = test system: ryegrass, Italian (Italian ryegrass, Lolium multiflorum); assay: Test C preemergence, Italian ryegrass; settings: 0 is no effect, 100 is complete control
From the text: as §1, §2

[10] = test system: soybean (Glycine max); assay: Test C preemergence, soybean; settings: 0 is no effect, 100 is complete control
From the text: as §1, §2

[11] = test system: wheat (Triticum aestivum); assay: Test C preemergence, wheat; settings: 0 is no effect, 100 is complete control
From the text: as §1, §2

[12] = test system: blackgrass (Alopecurus myosuroides); assay: Test C postemergence, blackgrass; settings: visual injury, 0 to 100 scale (0 no effect, 100 complete control)
From the text: as §1, §2

[13] = test system: corn (Zea mays); assay: Test C postemergence, corn; settings: visual injury, 0 to 100 scale (0 no effect, 100 complete control)
From the text: as §1, §2

[14] = test system: foxtail, giant (giant foxtail, Setaria faberi); assay: Test C postemergence, giant foxtail; settings: visual injury, 0 to 100 scale (0 no effect, 100 complete control)
From the text: as §1, §2

[15] = test system: goosegrass (Eleusine indica); assay: Test C postemergence, goosegrass; settings: visual injury, 0 to 100 scale (0 no effect, 100 complete control)
From the text: as §1, §2

[16] = test system: kochia (Bassia scoparia); assay: Test C postemergence, kochia; settings: visual injury, 0 to 100 scale (0 no effect, 100 complete control)
From the text: as §1, §2

[17] = test system: oat, wild (wild oat, Avena fatua); assay: Test C postemergence, wild oat; settings: visual injury, 0 to 100 scale (0 no effect, 100 complete control)
From the text: as §1, §2

[18] = test system: pigweed, palmer (palmer amaranth, Amaranthus palmeri); assay: Test C postemergence, palmer amaranth; settings: visual injury, 0 to 100 scale (0 no effect, 100 complete control)
From the text: as §1, §2

[19] = test system: ragweed (common ragweed, Ambrosia artemisiifolia); assay: Test C postemergence, ragweed; settings: visual injury, 0 to 100 scale (0 no effect, 100 complete control)
From the text: as §1, §2

[20] = test system: ryegrass, Italian (Italian ryegrass, Lolium multiflorum); assay: Test C postemergence, Italian ryegrass; settings: visual injury, 0 to 100 scale (0 no effect, 100 complete control)
From the text: as §1, §2

[21] = test system: soybean (Glycine max); assay: Test C postemergence, soybean; settings: visual injury, 0 to 100 scale (0 no effect, 100 complete control)
From the text: as §1, §2

[22] = test system: wheat (Triticum aestivum); assay: Test C postemergence, wheat; settings: visual injury, 0 to 100 scale (0 no effect, 100 complete control)
From the text: as §1, §2

[23] = test system: galium (catchweed bedstraw, Galium aparine); assay: Test C postemergence, galium; settings: visual injury, 0 to 100 scale (0 no effect, 100 complete control)
From the text: as §1, §2

[24] = test system: horseweed (Erigeron canadensis); assay: Test C postemergence, horseweed; settings: visual injury, 0 to 100 scale (0 no effect, 100 complete control)
From the text: as §1, §2

[25] = test system: barnyardgrass (Echinochloa crusgalli); assay: Test D flooded paddy test, barnyardgrass; parameters: key: 0 = no effect, 100 = complete control; settings: 250 g ai/ha, Flood; applied to paddy water at 2-leaf stage; visual rating after 13 days; scale 0 (no effect) to 100 (complete control)
Procedure: (§3) Plant species in the flooded paddy test selected from barnyardgrass (Echinochloa crusgalli), ducksalad (Heteranthera limosa), rice (Oryza sativa), and sedge, umbrella (small-flower umbrella sedge, Cyperus difformis) were grown to the 2-leaf stage for testing. At time of treatment, test pots were flooded to 3 cm above the soil surface, treated by application of test compounds directly to the paddy water, and then maintained at that water depth for the duration of the test. Treated plants and controls were maintained in a greenhouse for 13 days, after which time all species were compared to controls and visually evaluated. Plant response ratings, summarized in Table B, are based on a scale of 0 to 100 where 0 is no effect and 100 is complete control. A dash (-) response means no test result.

[26] = test system: ducksalad (Heteranthera limosa); assay: Test D flooded paddy test, ducksalad; parameters: key: 0 = no effect, 100 = complete control; settings: 250 g ai/ha, Flood; applied to paddy water at 2-leaf stage; visual rating after 13 days; scale 0 (no effect) to 100 (complete control)
Procedure: as §3

[27] = test system: rice (Oryza sativa); assay: Test D flooded paddy test, rice; parameters: key: 0 = no effect, 100 = complete control; settings: 250 g ai/ha, Flood; applied to paddy water at 2-leaf stage; visual rating after 13 days; scale 0 (no effect) to 100 (complete control)
Procedure: as §3

[28] = test system: sedge, umbrella (small-flower umbrella sedge, Cyperus difformis); assay: Test D flooded paddy test, umbrella sedge; parameters: key: 0 = no effect, 100 = complete control; settings: 250 g ai/ha, Flood; applied to paddy water at 2-leaf stage; visual rating after 13 days; scale 0 (no effect) to 100 (complete control)
Procedure: as §3

Cc1c(NS(=O)(=O)C(F)(F)F)cc(N2CCC(OCC3CC3)C2=O)c(C)c1F (stereo not shown) [Compound 63]
Plant response rating (0 to 100 scale), Blackgrass ([1]; 31 g ai/ha Preemergence): 70 | Plant response rating (0 to 100 scale), Blackgrass ([1]; 125 g ai/ha Preemergence): 90 | Plant response rating (0 to 100 scale), Corn ([2]; 31 g ai/ha Preemergence): 30 | Plant response rating (0 to 100 scale), Corn ([2]; 125 g ai/ha Preemergence): 100 | Plant response rating (0 to 100 scale), Foxtail, Giant ([3]; 31 g ai/ha Preemergence): 100 | Plant response rating (0 to 100 scale), Foxtail, Giant ([3]; 125 g ai/ha Preemergence): 100 | Plant response rating (0 to 100 scale), Goosegrass ([4]; 31 g ai/ha Preemergence): 100 | Plant response rating (0 to 100 scale), Goosegrass ([4]; 125 g ai/ha Preemergence): 100 | Plant response rating (0 to 100 scale), Kochia ([5]; 31 g ai/ha Preemergence): 90 | Plant response rating (0 to 100 scale), Kochia ([5]; 125 g ai/ha Preemergence): 100 | Plant response rating (0 to 100 scale), Oat, Wild ([6]; 31 g ai/ha Preemergence): 70 | Plant response rating (0 to 100 scale), Oat, Wild ([6]; 125 g ai/ha Preemergence): 100 | Plant response rating (0 to 100 scale), Pigweed, Palmer ([7]; 31 g ai/ha Preemergence): 100 | Plant response rating (0 to 100 scale), Pigweed, Palmer ([7]; 125 g ai/ha Preemergence): 100 | Plant response rating (0 to 100 scale), Ragweed ([8]; 31 g ai/ha Preemergence): 90 | Plant response rating (0 to 100 scale), Ragweed ([8]; 125 g ai/ha Preemergence): 100 | Plant response rating (0 to 100 scale), Ryegrass, Italian ([9]; 31 g ai/ha Preemergence): 50 | Plant response rating (0 to 100 scale), Ryegrass, Italian ([9]; 125 g ai/ha Preemergence): 100 | Plant response rating (0 to 100 scale), Soybean ([10]; 31 g ai/ha Preemergence): 60 | Plant response rating (0 to 100 scale), Soybean ([10]; 125 g ai/ha Preemergence): 100 | Plant response rating (0 to 100 scale), Wheat ([11]; 31 g ai/ha Preemergence): 80 | Plant response rating (0 to 100 scale), Wheat ([11]; 125 g ai/ha Preemergence): 100 | Blackgrass plant response rating ([12]; 31 g ai/ha Postemergence): 0 | Blackgrass plant response rating ([12]; 125 g ai/ha Postemergence): 30 | Corn plant response rating ([13]; 31 g ai/ha Postemergence): 0 | Corn plant response rating ([13]; 125 g ai/ha Postemergence): 50 | Foxtail, Giant plant response rating ([14]; 31 g ai/ha Postemergence): 0 | Foxtail, Giant plant response rating ([14]; 125 g ai/ha Postemergence): 30 | Goosegrass plant response rating ([15]; 31 g ai/ha Postemergence): 0 | Goosegrass plant response rating ([15]; 125 g ai/ha Postemergence): 90 | Kochia plant response rating ([16]; 31 g ai/ha Postemergence): 80 | Kochia plant response rating ([16]; 125 g ai/ha Postemergence): 90 | Oat, Wild plant response rating ([17]; 31 g ai/ha Postemergence): 0 | Oat, Wild plant response rating ([17]; 125 g ai/ha Postemergence): 40 | Pigweed, Palmer plant response rating ([18]; 31 g ai/ha Postemergence): 70 | Pigweed, Palmer plant response rating ([18]; 125 g ai/ha Postemergence): 90 | Ragweed plant response rating ([19]; 31 g ai/ha Postemergence): 40 | Ragweed plant response rating ([19]; 125 g ai/ha Postemergence): 80 | Ryegrass, Italian plant response rating ([20]; 31 g ai/ha Postemergence): 0 | Ryegrass, Italian plant response rating ([20]; 125 g ai/ha Postemergence): 10 | Soybean plant response rating ([21]; 31 g ai/ha Postemergence): 50 | Soybean plant response rating ([21]; 125 g ai/ha Postemergence): 100 | Wheat plant response rating ([22]; 31 g ai/ha Postemergence): 10 | Wheat plant response rating ([22]; 125 g ai/ha Postemergence): 40 | Galium plant response rating ([23]; 31 g ai/ha Postemergence): 100 | Galium plant response rating ([23]; 125 g ai/ha Postemergence): 100 | Horseweed plant response rating ([24]; 31 g ai/ha Postemergence): 90 | Horseweed plant response rating ([24]; 125 g ai/ha Postemergence): 90 | Plant response rating, Barnyardgrass [25]: 45 | Plant response rating, Ducksalad [26]: 95 | Plant response rating, Rice [27]: 45 | Plant response rating, Sedge, Umbrella [28]: 95
